In patent US20250072419A1, “SYSTEMS AND METHODS FOR APPLICATION OF ACTIVE INGREDIENTS TO CANNABIS” (Hazel Technologies, Inc., priority 2020, published 2025):
Where “and” joins values, the source holds several entries; their conditions need not be identical. Equal entries are not always repeated.

Experiments:
Assay type in all cases: in vivo
Cannabis variety A [1] = assay: total biomass and flower biomass of dried plants after 1-MCP treatment, variety A
Method: (§1) To examine the effect of 1-MCP exposure, six genetic replicates of a first variety of Cannabis (variety ‘A’) and six genetic replicates of a second variety of Cannabis (variety ‘B’) were grown under greenhouse conditions for a period of four weeks, then transferred to growth chamber conditions with a 12 hour photoperiod for three weeks to induce flower formation. Variety A was from a hybrid strain of 15% sativa and 85% indica bred by BC Bud Depot under the strain name Shiatsu. Variety B was from a hybrid strain of 50% sativa and 50% indica bred by Spectrum under the strain name Jack's Girl. Greenhouse conditions and growth chamber conditions are detailed in Table 1. Next, three of the genetic replicates of each variety were treated with 1-MCP via fumigation in a 295 cubic foot growth chamber for 18 hours using a source of the 1-MCP. The source of the 1-MCP was 250 g of a composition comprising 1-MCP in an amount of 2 wt % loaded in activated carbon as a porous adsorbent material. The treatment was initially activated via the addition of 0.07 gallons of liquid water to the composition, which accelerated release of 1-MCP and established an atmosphere within the growth chamber of 36.3 ppm 1-MCP. Twelve days later, the 18-hour 1-MCP treatment was repeated, and the treatment was repeated again the next day. Control groups of each variety were watered and exposed to identical conditions except that they were never fumigated with 1-MCP.
(§2) To examine the effect of 1-MCP exposure, the genetic replicates from variety A and variety B of Example 1 were measured (i) after plants were dried and (ii) after plants were dried and trimmed, reflecting flower biomass. Measurement (i) provided the total biomass of each genetic replicate, while measurement (ii) provided the mass of consumer-ready product. The drying of the plants was performed by placing the plants into a drying chamber (90° F., 16% relative humidity) for 72 hours prior to measurement and/or trimming.

[2] = test system: female Cannabis plants, variety 'A' (Shiatsu, 15% sativa and 85% indica); assay: development of male sex organs / phenotype on female plants after 1-MCP fumigation, variety A
Method: as §1, with “Control groups of each variety were watered and exposed to identical conditions except that they were never fumigated with 1-MCP.” left out

Cannabis variety B [3] = assay: cannabinoid profile of floral tissue by HPLC after 1-MCP treatment, variety B
Method: as §1, with “The treatment was initially activated via the addition of 0.07 gallons of liquid water to the composition, which accelerated release of 1-MCP and established an atmosphere within the growth chamber of 36.3 ppm 1-MCP. Twelve days later, the 18-hour 1-MCP treatment was repeated, and the treatment was repeated again the next day. Control groups of each variety were watered and exposed to identical conditions except that they were never fumigated with 1-MCP.” left out
Cannabinoids concentrations were measured in the genetic replicates from variety A and variety B of Example 1 at three time-points: T1—two days before the first treatment with 1-MCP; T2—one week after the first treatment with 1-MCP; and T3—after all 1-MCP treatments, once the genetic replicates had reached full plant maturity. […]

[4] = test system: female Cannabis plants, variety 'B' (Jack's Girl, 50% sativa and 50% indica); assay: development of male sex organs on female plants after 1-MCP fumigation, variety B; settings: for Flower clusters displaying male organs 30 days after treatment 3 (%): 36.3 ppm 1-MCP
Method: as §1
Stamens were not observed in variety ‘A’ genetic replicates or in either control group.

Cannabis variety A [5] = assay: cannabinoid profile of floral tissue by HPLC after 1-MCP treatment, variety A
Method: as §1
Cannabinoids concentrations were measured in the genetic replicates from variety A and variety B of Example 1 at three time-points: T1—two days before the first treatment with 1-MCP; T2—one week after the first treatment with 1-MCP; and T3—after all 1-MCP treatments, once the genetic replicates had reached full plant maturity. At each timepoint, three samples of floral tissue were collected from each genetic replicate and frozen overnight. To prepare samples of floral tissue for high performance liquid chromatography (HPLC) analysis, frozen floral tissue was ground, extracted in HPLC-grade methanol, and filtered. HPLC was performed on the filtered methanol, providing a cannabinoid profile for each sample of floral tissue.
Analysis of Variance (ANOVA) was performed to evaluate the effect of 1-MCP on cannabinoid content under each set of experimental conditions.

Cannabis variety B [6] = assay: total biomass and flower biomass of dried plants after 1-MCP treatment, variety B
Method: as §1, §2

[7] = Treatment, single specimens, dried and trimmed plants
[8] = Treatment, single specimens, dried plants

CC1=CC1 [1-MCP, 1-methylcyclopropene]
deleterious effect on the biomass (Cannabis variety A [1]): did not have a deleterious effect | increase in flower biomass over the control group (Cannabis variety A [1]): ~10% | increase in total biomass over the control group (Cannabis variety A [1]): ~22% | Flower Biomass Group Mean (Cannabis variety A [1]; Treatment, mean of 3 specimens, control mean 87.6): 95.3 g | Total Biomass Group Mean (Cannabis variety A [1]; Treatment, mean of 3 specimens, control mean 105): 118.3 g | Flower Biomass (Cannabis variety A [1]; [7]): 98 g and 90 g | Total Biomass (Cannabis variety A [1]; [8]): 130 g and 120 g and 105 g | staminate growth ([2]; variety A genetic replicates treated with 1-MCP): Staminate growth was not observed | plants observed to have purple leaves ([2]; variety A, three 1-MCP-treated plants (FIG. 7), none of three controls): two of three | deleterious effects on the overall profile of cannabinoids (Cannabis variety B [3]): no deleterious effects | total cannabinoid concentration, treated versus control (ANOVA) (Cannabis variety B [3]; mature plants (T3) (FIG. 8)): no statistically significant difference | stamen growth on female floral tissue ([4]; 15 days after final fumigation (FIG. 5)): presence of multiple stamens | stamen growth on female floral tissue ([4]; 19 days after final fumigation (FIG. 6)): multiple stamens | Flower clusters displaying male organs 30 days after treatment 3 (%) ([4]; Plant 1, three 18 h fumigations): 97% | Flower clusters displaying male organs 30 days after treatment 3 (%) ([4]; Plant 2, three 18 h fumigations): 100% | Flower clusters displaying male organs 30 days after treatment 3 (%) ([4]; Plant 3, three 18 h fumigations): 86% | stamen growth on female floral tissue ([4]; five days after final fumigation (FIG. 4)): further development of stamen growth | flower clusters displaying staminate growth ([4]; thirty days after the final 1-MCP treatment): 80-100% | stamen growth on female floral tissue ([4]; three days after the final fumigation (FIG. 3)): stamens were observed | deleterious effects on the overall profile of cannabinoids (Cannabis variety A [5]; variety A): no deleterious effects | THCA, THCVA and CBGA concentrations, treated versus control (ANOVA) (Cannabis variety A [5]; variety A (FIGS. 9A-C)): A few statistically significant differences | total cannabinoid concentration, treated versus control (ANOVA) (Cannabis variety A [5]; variety A, mature plants (T3) (FIG. 8)): no statistically significant difference | total cannabinoid concentration, treated versus control (ANOVA) (Cannabis variety A [5]; variety A, timepoint T2, one week after the first treatment (FIG. 8)): statistically significant difference | decrease in flower biomass versus control (Cannabis variety B [6]): ~2% | decrease in total biomass versus control (Cannabis variety B [6]): ~2% | deleterious effect on the biomass (Cannabis variety B [6]): did not have a deleterious effect | Flower Biomass Group Mean (Cannabis variety B [6]; Treatment, mean of 3 specimens, control mean 102.3): 100.3 g | Total Biomass Group Mean (Cannabis variety B [6]; Treatment, mean of 3 specimens, control mean 118.3): 115.6 g | Flower Biomass (Cannabis variety B [6]; [7]): 95 g and 106 g and 100 g | Total Biomass (Cannabis variety B [6]; [8]): 111 g and 121 g and 115 g
